Assay results published in ChEMBL document CHEMBL4842340, “Development of Cagrilintide, a Long-Acting Amylin Analogue” (J Med Chem, 2021).
Converted amounts (≈) assume the structure as drawn. *1 amine or outer side, *2 acyl side, *3 side chain or, on linkers, in order; H or OH if unused. Where a SMILES comes first, the peptide text is derived from it. Bridges are numbered along the chain shown (N, C = ends). [ ]: non-standard residue; d: D form. The star is where a group is joined. C20 diacid = O=C(O)CCCCCCCCCCCCCCCCCCC(=O)*; γGlu = O=C(O)[C@H](CCC(=O)[*:2])N[*:1]; AEEA = NCCOCCOCC(=O)O

Experiments:
[1] = Agonist activity at human AMY3R (CT+RAMP3) expressed in Hollex1 cells incubated for 3 hrs by luminescence assay; format: cell-based; details: Hollex1, 3 h
[2] = Agonist activity at human calcitonin receptor expressed in BHK570 cells assessed as increase in intracellular cAMP concentration incubated for 3 hrs in absence of albumin by CRE luciferase reporter gene assay; format: cell-based; details: BHK570, 3 h
[3] = species on record: Homo sapiens; assay: Ratio of EC50 for human calcitonin receptor expressed in BHK570 cells to EC50 for human AMY3R (CT+RAMP3) expressed in Hollex1 cells; format: cell-based
[4] = Agonist activity at rat AMY3R (CT+RAMP3) expressed in tk-ts13 cells assessed as increase in intracellular cAMP level incuabted for 25 mins by CRE luciferase reporter gene assay; format: cell-based; details: tk-ts13, 25 min
[5] = Agonist activity at rat calcitonin receptor expressed in BHK-13 cells assessed as increase in intracellular cAMP concentration incubated for 25 mins by CRE luciferase reporter gene assay; format: cell-based; details: BHK-13, 25 min
[6] = species on record: Rattus norvegicus; assay: Ratio of EC50 for rat calcitonin receptor expressed in BHK-13 cells to EC50 for rat AMY3R (CT+RAMP3) expressed in tk-ts13 cells; format: cell-based
[7] = Solubility of the compound in lactate at pH 3 by UPLC analysis; format: physicochemical; details: lactate buffer
[8] = Solubility of the compound in lactate at pH 4 by UPLC analysis; format: physicochemical; details: lactate buffer
[9] = Solubility of the compound in lactate at pH 5 by UPLC analysis; format: physicochemical; details: lactate buffer
[10] = Solubility of the compound in bis-tris propane at pH 6 by UPLC analysis; format: physicochemical; details: bis-tris propane buffer
[11] = Solubility of the compound in bis-tris propane at pH 6.5 by UPLC analysis; format: physicochemical; details: bis-tris propane buffer
[12] = Solubility of the compound in bis-tris propane at pH 7 by UPLC analysis; format: physicochemical; details: bis-tris propane buffer
[13] = Solubility of the compound in bis-tris propane at pH 7.5 by UPLC analysis; format: physicochemical; details: bis-tris propane buffer
[14] = Solubility of the compound in bis-tris propane at pH 8 by UPLC analysis; format: physicochemical; details: bis-tris propane buffer
[15] = target: Insulin (Homo sapiens) (UniProt P01308); assay: Effect on insulin (unknown origin) amyloid fibril formation assessed as lag time in glycyl-glycine buffer at pH 4 measured after 45 hrs by thioflavin-T fluorescence assay
Chain of Insulin (Homo sapiens) (P01308 whole entry): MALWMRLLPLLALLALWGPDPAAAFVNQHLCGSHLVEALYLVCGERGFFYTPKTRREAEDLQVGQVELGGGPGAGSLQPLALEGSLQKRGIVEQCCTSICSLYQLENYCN

[16] = target: Insulin (Homo sapiens) (UniProt P01308); assay: Effect on insulin (unknown origin) amyloid fibril formation assessed as peptide recovery in glycyl-glycine buffer at pH 4 measured after 45 hrs by thioflavin-T fluorescence assay relative to control; set-up: concentration or dose not given beside the values
[17] = system: Rattus norvegicus; assay: Reduction in food intake in Sprague-Dawley rat at 3 nmol/kg, sc administered as single dose measured upto 24 hrs relative to control; format: functional; set-up: scale not given: the % may be the effect or the level left; details: time hrs <=24
[18] = system: Rattus norvegicus; assay: Reduction in food intake in Sprague-Dawley rat at 3 nmol/kg, sc administered as single dose measured after 24 to 48 hrs relative to control; format: functional; set-up: scale not given: the % may be the effect or the level left; details: time 24-48 hrs

Row | EC50 [1] | EC50 [2] | EC50 [4] | EC50 [5] | solubility [7] | solubility [8] | solubility [9] | solubility [10] | solubility [11] | solubility [12] | solubility [13] | solubility [14] | TIME [15] | Activity [16] | Structure (SMILES) | Ratio EC50 [3] | Ratio EC50 [6] | Activity [17] | Activity [18]
1 | 0.14 nM | 1.08 nM | 0.233 nM | 4.48 nM | 200 µM (≈ 1000 µg/mL) | 200 µM (≈ 1000 µg/mL) | 200 µM (≈ 1000 µg/mL) | 200 µM (≈ 1000 µg/mL) | 200 µM (≈ 1000 µg/mL) | 200 µM (≈ 1000 µg/mL) | 200 µM (≈ 1000 µg/mL) | 200 µM (≈ 1000 µg/mL) | 45 h | 94% | CC[C@H](C)[C@H](NC(=O)[C@@H]1CCCN1C(=O)CNC(=O)[C@H](Cc1ccccc1)NC(=O)[C@H](CC(N)=O)NC(=O)[C@H](C)NC(=O)[C@H](CO)NC(=O)[C@H](CO)NC(=O)[C@H](CCCNC(=N)N)NC(=O)[C@H](Cc1cnc[nH]1)NC(=O)[C@H](CC(C)C)NC(=O)[C@H](Cc1ccccc1)NC(=O)[C@H](CCC(=O)O)NC(=O)[C@H](C)NC(=O)[C@H](CC(C)C)NC(=O)[C@H](CCCNC(=N)N)NC(=O)[C@H](CCC(N)=O)NC(=O)[C@@H](NC(=O)[C@H](C)NC(=O)[C@@H]1CSSC[C@H](NC(=O)[C@H](CCCCN)NC(=O)[C@@H](CCCNC(=N)N)NC(=O)[C@@H](CCCNC(=N)N)NC(=O)COCCOCCNC(=O)COCCOCCNC(=O)CC[C@H](NC(=O)CCCCCCCCCCCCCCCCCCC(=O)O)C(=O)O)C(=O)N[C@@H](CC(N)=O)C(=O)N[C@@H]([C@@H](C)O)C(=O)N[C@@H](C)C(=O)N[C@@H]([C@@H](C)O)C(=O)N1)[C@@H](C)O)C(=O)N[C@@H](CC(C)C)C(=O)N1CCC[C@H]1C(=O)N1CCC[C@H]1C(=O)N[C@H](C(=O)N[C@@H](CC(N)=O)C(=O)N[C@H](C(=O)NCC(=O)N[C@@H](CO)C(=O)N[C@@H](CO)C(=O)N[C@H](C(=O)N[C@@H](Cc1ccc(O)cc1)C(N)=O)[C@@H](C)O)C(C)C)[C@@H](C)O ({C20 diacid-γGlu-AEEA-AEEA}-[dR][dR]KCNTATCATQRLAEFLHRSSANFGPILPPTNVGSSTY-NH2; disulfide 4-9) | 8 | 19 | 16% | 0%
2 | 0.377 nM | 0.657 nM |  |  | 200 µM (≈ 891 µg/mL) | 200 µM (≈ 891 µg/mL) |  | 200 µM (≈ 891 µg/mL) | 200 µM (≈ 891 µg/mL) | 200 µM (≈ 891 µg/mL) | 200 µM (≈ 891 µg/mL) | 200 µM (≈ 891 µg/mL) | 3 h | 0% | CC[C@H](C)[C@H](NC(=O)[C@@H]1CCCN1C(=O)CNC(=O)[C@H](Cc1ccccc1)NC(=O)[C@H](CC(N)=O)NC(=O)[C@H](CC(N)=O)NC(=O)[C@H](CO)NC(=O)[C@H](CO)NC(=O)[C@H](Cc1cnc[nH]1)NC(=O)[C@H](Cc1cnc[nH]1)NC(=O)[C@H](CC(C)C)NC(=O)[C@H](Cc1ccccc1)NC(=O)[C@H](CCC(=O)O)NC(=O)[C@H](C)NC(=O)[C@H](CC(C)C)NC(=O)[C@H](CCCNC(=N)N)NC(=O)[C@H](CCC(N)=O)NC(=O)[C@@H](NC(=O)[C@H](C)NC(=O)[C@@H]1CSSC[C@H](NC(=O)[C@H](CCC(=O)O)NC(=O)CC[C@H](NC(=O)CCCCCCCCCCCCCCCCCCC(=O)O)C(=O)O)C(=O)N[C@@H](CC(N)=O)C(=O)N[C@@H]([C@@H](C)O)C(=O)N[C@@H](C)C(=O)N[C@@H]([C@@H](C)O)C(=O)N1)[C@@H](C)O)C(=O)N[C@@H](CC(C)C)C(=O)N1CCC[C@H]1C(=O)N1CCC[C@H]1C(=O)N[C@H](C(=O)N[C@@H](CC(N)=O)C(=O)N[C@H](C(=O)NCC(=O)N[C@@H](CO)C(=O)N[C@@H](CC(N)=O)C(=O)N[C@H](C(=O)N[C@@H](Cc1ccc(O)cc1)C(N)=O)[C@@H](C)O)C(C)C)[C@@H](C)O ({C20 diacid-γGlu}-ECNTATCATQRLAEFLHHSSNNFGPILPPTNVGSNTY-NH2; disulfide 2-7) | 2 |  | 15% | 5%
3 | 0.107 nM | 0.218 nM |  |  | 200 µM (≈ 884 µg/mL) |  |  |  | 4 µM (≈ 17.7 µg/mL) | 7 µM (≈ 31 µg/mL) |  |  | 14 h | 0% | CC(C)C[C@H](NC(=O)[C@H](CCCNC(=N)N)NC(=O)[C@H](CCC(N)=O)NC(=O)[C@@H](NC(=O)[C@H](C)NC(=O)[C@@H]1CSSC[C@H](NC(=O)[C@H](Cc2cnc[nH]2)NC(=O)CC[C@H](NC(=O)CCCCCCCCCCCCCCCCCCC(=O)O)C(=O)O)C(=O)N[C@@H](CC(N)=O)C(=O)N[C@@H]([C@@H](C)O)C(=O)N[C@@H](C)C(=O)N[C@@H]([C@@H](C)O)C(=O)N1)[C@@H](C)O)C(=O)N[C@@H](C)C(=O)N[C@@H](CCC(=O)O)C(=O)N[C@@H](Cc1ccccc1)C(=O)N[C@@H](CC(C)C)C(=O)N[C@@H](Cc1cnc[nH]1)C(=O)N[C@@H](CCCNC(=N)N)C(=O)N[C@@H](CO)C(=O)N[C@@H](CO)C(=O)N[C@@H](CC(N)=O)C(=O)N[C@@H](CC(N)=O)C(=O)N[C@@H](Cc1ccccc1)C(=O)NCC(=O)N[C@@H](C)C(=O)N1CCC[C@H]1C(=O)N[C@@H](CC(C)C)C(=O)N[C@@H](CO)C(=O)N[C@@H](CO)C(=O)N[C@H](C(=O)N[C@@H](CC(N)=O)C(=O)N[C@H](C(=O)NCC(=O)N[C@@H](CO)C(=O)N[C@@H](CC(N)=O)C(=O)N[C@H](C(=O)N[C@@H](Cc1ccc(O)cc1)C(N)=O)[C@@H](C)O)C(C)C)[C@@H](C)O ({C20 diacid-γGlu}-HCNTATCATQRLAEFLHRSSNNFGAPLSSTNVGSNTY-NH2; disulfide 2-7) | 2 |  |  | 
4 | 0.111 nM | 0.379 nM | 0.49 nM | 2.54 nM | 200 µM (≈ 900 µg/mL) | 200 µM (≈ 900 µg/mL) | 200 µM (≈ 900 µg/mL) | 200 µM (≈ 900 µg/mL) | 200 µM (≈ 900 µg/mL) | 200 µM (≈ 900 µg/mL) |  | 80 µM (≈ 360 µg/mL) | 45 h | 100% | CC[C@H](C)[C@H](NC(=O)[C@@H]1CCCN1C(=O)CNC(=O)[C@H](Cc1ccccc1)NC(=O)[C@H](CC(N)=O)NC(=O)[C@H](CC(N)=O)NC(=O)[C@H](CO)NC(=O)[C@H](CO)NC(=O)[C@H](Cc1c[nH]cn1)NC(=O)[C@H](CCCNC(=N)N)NC(=O)[C@H](CC(C)C)NC(=O)[C@H](Cc1ccccc1)NC(=O)[C@H](CCC(=O)O)NC(=O)[C@H](C)NC(=O)[C@H](CC(C)C)NC(=O)[C@H](CCCNC(=N)N)NC(=O)[C@H](CCC(N)=O)NC(=O)[C@@H](NC(=O)[C@H](C)NC(=O)[C@@H]1CSSC[C@H](NC(=O)[C@H](CCCCN)NC(=O)CC[C@H](NC(=O)CCCCCCCCCCCCCCCCCCC(=O)O)C(=O)O)C(=O)N[C@@H](CC(N)=O)C(=O)N[C@@H]([C@@H](C)O)C(=O)N[C@@H](C)C(=O)N[C@@H]([C@@H](C)O)C(=O)N1)[C@@H](C)O)C(=O)N[C@@H](CC(C)C)C(=O)N1CCC[C@H]1C(=O)N1CCC[C@H]1C(=O)N[C@H](C(=O)N[C@@H](CC(N)=O)C(=O)N[C@H](C(=O)NCC(=O)N[C@@H](CO)C(=O)N[C@@H](Cc1cnc[nH]1)C(=O)N[C@H](C(=O)N[C@@H](Cc1ccc(O)cc1)C(N)=O)[C@@H](C)O)C(C)C)[C@@H](C)O ({C20 diacid-γGlu}-KCNTATCATQRLAEFLRHSSNNFGPILPPTNVGSHTY-NH2; disulfide 2-7) | 3 | 5 | 17% | 0%
